Assays:
subjects with psoriasis = assay: Phase I clinical trial of topical KX-01 ointment in subjects with psoriasis; format: in vivo, human
Method: Six subjects with psoriasis with Total Area Score (TAS) of 4-8 (based on the sum of the scores of erythema, elevation and scaling) were assessed. […] In stage I, each subject will be assigned randomly to KX-01 (0.01%, n=6) or placebo (n=2) before the first administration of investigational medicinal product (KX-01 or placebo). 22 subjects are recruited in three stages. Each subject in stage I will receive treatment for two weeks, followed by one-week wash-out, another two-week treatment, and then two-week follow-up. After a satisfactory collaborative review for the safety data of the lower strength (0.01%) at the end of follow up for each subject, if there is no major safety concern (major safety concern is defined as ≥2 subjects in the KX-01 group having ≥CTCAE Grade 3 or severe adverse drug reaction), as well as an unanimous consent by the sponsor and the principle investigator(s), stage II study begins where each subject is assigned randomly to KX-01 (0.1%, n=6) or placebo (n=2) before the first administration. Each subject in the stage II will receive treatment for four weeks, followed by a two-week follow-up. After a satisfactory collaborative review for the safety data of the lower strength (0.1%) at the end of follow up for each subject, if there is no major safety concern, stage III study follows. Stage III comprises a single arm study (n=6), where each subject will receive 1% KX-01 once daily for consecutive five days and then receive post-treatment follow-up on day 6, 15, and 29. • Stage I: 6 subjects (KX-01 0.01% [0.1 mg/g])+2 subjects (placebo) • Stage II: 6 subjects (KX-01 0.1% [1.0 mg/g])+2 subjects (placebo) • Stage III: 6 subjects (KX-01 1% [10 mg/g]) Subjects visit the study center for ambulatory visits: • Stage I (See Tables 1A and 1B) • Visit 1: Screening, within 28 days before first application of IMP • Visit 2: Week 1 (Day 1/Baseline) • Visit 3: Week 2 (Day 8±3/After consecutive 1-week treatment) • Visit 4: Week 3 (Day 15±3/After consecutive 2-week treatment) • Visit 5: Week 4 (Day 22±3/After 1 week wash-out) • Visit 6: Week 6 (Day 36±3/After another consecutive 2-week treatment) • Visit 7: Week 8 (Day 50±3/After 2-week post-treatment follow-up) • Stage II (See Tables 2A and 2B) • Visit 1: Screening, within 28 days before first application of IMP • Visit 2: Week 1 (Day 1/Baseline) • Telephone interview (Day 8±3, after consecutive 1-week treatment) • Visit 3: Week 3 (Day 15±3/After consecutive 2-week treatment) • Visit 4: Week 5 (Day 29±3/After consecutive 4-week treatment) • Visit 5: Week 7 (Day 43±3/After 2-week post-treatment follow-up) • […] (See Table 3) • Visit 1: Screening, within 28 days before first application of IMP • Visit 2: Day 1, baseline • Visit 3: Day 6±1, after consecutive 5-day treatment • Visit 4: Day 15±2, after 10-day post-treatment follow up • Visit 5: Day 29±2, after 24-day post-treatment follow-up The IMP (treatment or placebo) is applied to a single lesion. […] For stage I, each subject receives IMP for 14 consecutive days, followed by 1-week wash-out period and then receives IMP for another 14 consecutive days. For stage II, each subject receives IMP for 28 consecutive days. For stage III, each subject receives IMP once daily for consecutive five days. For stage I and II, blood samples for the determination of KX-01 concentrations are collected prior to the morning dose at the designated ambulatory visits to the study center (Stage I: Day 1, 8±3, 15±3, 22±3 Stage II: Day 1, 15±3, 29±3) (See Table 4). For stage III, blood samples for drug concentrations are collected prior to the dose on day 1, and day 6±1, day 15±2. The duration of this study is approximately three months for each subjects (See Table 4). On day 1, a single treatment lesion consisting of active psoriasis skin lesion of at least 16 cm^2 in size with upper limit of 625 cm^2 for stage I and II, and at least 16 cm^2 and no more than 100 cm^2 (≥16 cm^2 &≤100 cm^2) in size for stage III is selected for each subject. […]

rabbits = assay: Twice daily dermal administration of KX-01 ointment to rabbits (seven days, single dose on day eight); format: in vivo, rabbit; details: up to 2.0667 mg/kg KX-01 in ointment, seven days twice daily dosing with a single dose on day eight
mini-pigs = assay: Once daily KX-01 1% ointment on mini-pigs, occluded skin, 28 days; format: in vivo, mini-pig
Text: KX-01 1% once daily administration of KX-01 ointment was examined on the mini-pigs on 10% of body surface area with skin being occluded for consecutive 28 days.

rats = assay: Twice daily dermal administration of KX-01 ointment to rats (six days); format: in vivo, rat
Method: Subjects in clinical studies of KX-01 ointment where administered KX-01 ointment up to 250 mg (5 mg/cm^2 [administration amount]×25 cm^2 [administration area]×2 [safety factor for larger application area]). This amount of the 0.01% or 0.1% concentration of ointment contains 0.025 mg or 0.25 mg of KX-01. Therefore, the amount of KX-01 delivered to the skin of the average 60 kg subject is 0.025 or 0.25 mg/60 kg/dose, or 0.00042 or 0.0042 mg/kg/dose. […] The safety margin in administered dermal KX-01 dose indicates little risk of adverse systemic effects in humans under the conditions of the clinical studies of KX-01 ointment based on nonclinical studies in animals.

[1] = 1% ointment daily for five days, observed in one subject
[2] = KX-01 ointment 0.01% twice daily dose regimen
[3] = 1% ointment once daily, 10% of body surface area, occluded, 28 consecutive days

With `O=C(Cc1ccc(-c2ccc(OCCN3CCOCC3)cc2)cn1)NCc1ccccc1` [KX-01, Tirbanibulin] the “Systemic absorption of KX-01” value (subjects with psoriasis; 1% ointment daily for five days, topical) was “no significant absorption”, the Psoriatic plaque thickness (subjects with psoriasis; 1% ointment daily for five days, another subject of six) was “improvement” and the “Skin burning sensation (adverse event severity)” value (subjects with psoriasis; [1]) was “mild (grade-1)”. The “Skin irritation (adverse event severity)” value (subjects with psoriasis; [1]) was “mild (grade-1)”, the Skin scaling (subjects with psoriasis; 1% ointment daily for five days, one subject of six) was “complete resolution” and the Tolerability of treatment (subjects with psoriasis; 1% ointment daily for five days, six subjects) was “well-tolerated”. The “TAS score (sum of erythema, elevation and scaling)” value (subjects with psoriasis; 1% ointment daily for five days, six subjects, baseline TAS 4-8) was “All subjects showed an improvement”, the Clinical activity (subjects with psoriasis; KX-01 (Tirbanibulin) 1% ointment daily for five days, first cohort of subjects with psoriasis) was “Clinical activity signals were observed” and the “Serious adverse events (SAE)” value (subjects with psoriasis; [2]) was “No serious adverse event”. For the same compound, the “Treatment-emergent adverse events related to drug” value (subjects with psoriasis; [2]) was “Only one treatment-emergent adverse event, Grade 1 tenderness”, the Tolerability (subjects with psoriasis; KX-01 ointment 0.01% twice daily dose regimen, most subjects) was “excellent and good” and the Safety profile (subjects with psoriasis; KX-01 ointment in the treatment of psoriasis) was “Good safety profile”. The Skin irritation (rabbits) was “mild to moderate”, the Systemic adverse effects (rabbits) was “no signs of systemic adverse effects” and the Body weight (mini-pigs; [3]) was “decreased”. For the same compound, the “Edema at the drug application site” value (mini-pigs; [3]) was “very slight to slight”, the “Erythema and eschar at the drug application site” value (mini-pigs; [3]) was “very slight to severe” and the “Hepatic, renal, and haematological profiles” value (mini-pigs; [3]) was “changes”. The “Other skin findings at the drug application site” value (mini-pigs; [3]) was “desquamation, fissuring, scab, ulceration”, the Reversibility of findings (mini-pigs; by the last week of recovery after 28 days of 1% ointment) was “Most of these findings were resolved” and the “Safety margin: clinical dermal dose times lower than rat 12.4 mg/kg/dose” value (rats; 0.01% ointment, 0.025 mg/60 kg/dose (0.00042 mg/kg/dose) in humans vs 12.4 mg/kg/dose in rats) was “approximately 29700 times”. The “Safety margin: clinical dermal dose times lower than rat 12.4 mg/kg/dose” value (rats; 0.1% ointment, 0.25 mg/60 kg/dose (0.0042 mg/kg/dose) in humans vs 12.4 mg/kg/dose in rats) was roughly 2970 times and the “Plasma concentrations of KX-01” value (rats; rat, in vivo) was “very low”.
